From US20250019371A1, “SMALL-MOLECULAR INHIBITORS FOR THE BETA-CATENIN/ B-CELL LYMPHOMA 9 PROTEIN-PROTEIN INTERACTION” (H. LEE MOFFITT CANCER CENTER AND RESEARCH INSTITUTE, INC., priority 2021, published 2025)
Read-outs that look alike come from different tables or passages of the source.

Experiments:
[1] = molecular target: T1, β-catenin/BCL9 PPI (Homo sapiens, UniProt P35222); assay: AlphaScreen competitive inhibition assay of β-catenin/BCL9 PPI; format: binding; details: for AlphaScreen inhibitory activity in words: SAR comparison
T1 construct: Full-length β-catenin (residues 1-781); host or cells: E. coli BL21 DE3
T1 sequence (P35222 1-781): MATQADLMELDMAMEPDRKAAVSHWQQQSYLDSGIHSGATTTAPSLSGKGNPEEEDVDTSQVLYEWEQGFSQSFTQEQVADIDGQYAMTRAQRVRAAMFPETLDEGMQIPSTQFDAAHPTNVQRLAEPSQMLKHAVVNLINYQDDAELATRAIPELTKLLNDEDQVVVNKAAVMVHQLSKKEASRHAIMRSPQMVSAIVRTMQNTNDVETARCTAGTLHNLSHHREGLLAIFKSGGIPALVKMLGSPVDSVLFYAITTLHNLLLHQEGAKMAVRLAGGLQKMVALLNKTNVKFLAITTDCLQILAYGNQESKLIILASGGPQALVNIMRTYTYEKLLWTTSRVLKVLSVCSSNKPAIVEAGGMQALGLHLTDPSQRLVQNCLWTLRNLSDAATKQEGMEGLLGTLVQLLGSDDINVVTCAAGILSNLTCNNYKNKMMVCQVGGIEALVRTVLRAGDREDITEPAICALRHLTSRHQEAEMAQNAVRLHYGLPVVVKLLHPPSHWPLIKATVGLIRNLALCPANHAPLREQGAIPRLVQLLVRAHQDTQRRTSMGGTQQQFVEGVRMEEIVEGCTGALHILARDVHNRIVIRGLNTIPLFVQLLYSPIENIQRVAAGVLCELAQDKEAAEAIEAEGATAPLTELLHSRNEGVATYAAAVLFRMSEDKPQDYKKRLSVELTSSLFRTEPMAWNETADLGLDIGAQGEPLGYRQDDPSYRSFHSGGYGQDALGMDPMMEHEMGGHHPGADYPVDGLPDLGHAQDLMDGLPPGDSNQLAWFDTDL
Experimental: AlphaScreen Assays of β-Catenin and BCL9 Interaction. Experiments were performed in white opaque 384-well plates from PerkinElmer (Waltham, MA), and the samples were read on a Biotek Synergy 2 plate reader (Winooski, VT) with excitation at 680 nm and emission at 570 nm. The standard AlphaScreen protocol was used with a sensitivity setting of 200. All dilutions were made in 1x assay buffer containing 25 mM Hepes (pH 7.4), 100 mM NaCl, 0.01% Triton X-100 and 0.1% BSA to minimize nonspecific interactions.
For the β-catenin/BCL9 assay, 5 nM biotinylated BCL9, and 50 nM His6-tagged 8-catenin were incubated in assay buffer for 30 min. Different concentrations of the tested inhibitor were added and incubated in 20 μL assay buffer for another 1 h. All of the assay plates were covered and gently mixed on an orbital shaker. Donor and acceptor beads were then added to the plates to a final concentration of 10 μg/mL in 25 μL assay buffer. The mixture was incubated for 1 h before detection. The IC50 value was determined by nonlinear least-square analysis of GraphPad Prism 8.0. […] All of the experiments were performed in triplicate and carried out in the presence of 1% DMSO for small-molecule inhibitors. Each compound was assayed at least by three independent experiments. The results were expressed as mean±standard deviation.

[2] = system: SW480; assay: MTS cell viability assay, SW480; format: cell-based; details: Homo sapiens, 72 h, Wnt/β-catenin hyperactive, mean ± SD (n = 3)
Experimental: (§1) MTS Cell Growth Inhibition Experiments. Colorectal cancer cells (SW480 and HCT116) and triple negative breast cancer cells (MDA-MB-231 and MDA-MB-468) were seeded in 96-well plates at 5×10^3 cells/well in DMEM with 10% FCS, maintained overnight at 37° C., and incubated with the tested compounds at various concentrations. Human mammary epithelial cell MCF10A were seeded in 96-well plates at 1×10^4 cells/well in MEGM (CC-3150, Lonza) with 100 ng/mL cholera toxin, maintained overnight at 37° C., and incubated with the tested compounds at various concentrations. Cell viability was monitored after 72 h using a freshly prepared mixture of 1 part phenazine methosulfate (PMS, Sigma) solution (0.92 mg/mL) and 19 parts 3-(4,5-dimethylthiazol-2-yl)-5-(3-carboxymethoxyphenyl)-2-(4-sulfophenyl)-2H-tetrazolium (MTS, Promega) solution (2 mg/mL). Cells were incubated in 10 μL of this solution at 37° C. for 3 h, and A490 was measured. […] Experiments were performed in triplicate.

[3] = system: HCT116; assay: MTS cell viability assay, HCT116; format: cell-based; details: Homo sapiens, HCT-116; 72 h, Wnt/β-catenin hyperactive, mean ± SD (n = 3)
Experimental: as §1

[4] = system: MDA-MB-231; assay: MTS cell viability assay, MDA-MB-231; format: cell-based; details: Homo sapiens, 72 h, Wnt/β-catenin hyperactive, mean ± SD (n = 3)
Experimental: as §1

[5] = system: MDA-MB-468; assay: MTS cell viability assay, MDA-MB-468; format: cell-based; details: Homo sapiens, 72 h, Wnt/β-catenin hyperactive, mean ± SD (n = 3)
Experimental: as §1

[6] = system: MCF10A; assay: MTS cell viability assay, MCF10A; format: cell-based, human; details: for IC50: Homo sapiens, MCF-10A, 72 h, Wnt/β-catenin normal, mean ± SD (n = 3)
Experimental: as §1

[7] = system: Wnt/β-catenin hyperactive cancer cells; assay: MTS cell viability assays, cell panel; format: cell-based; details: Homo sapiens, MCF-10A; all tested cells incl. MCF10A; read-out: MTS IC50 on all tested cells
Experimental: as §1

[8] = system: Wnt/β-catenin signaling (TOPFlash luciferase reporter); assay: TOPFlash luciferase reporter assay in SW480 cells; format: cell-based; details: Homo sapiens, 24 h
Experimental: The suppressing effect of the inhibitors on transactivation of Wnt/β-catenin signaling was evaluated by the TOPFlash/FOPFlash luciferase reporter assay. In the TOPFlash assay, the luciferase reporter has three wild-type Tcf4 binding sites, while in the FOPFlash assay Tcf4 binding sites were mutated. These tandem Tcf binding sites controls the expression ratio of the firefly luciferase in TOPFlash/FOPFlash assays. The renilla luciferase reporter construct (pCMV-RL) was used as the internal control to normalize luciferase reporter signals and eliminate any possible systematic errors. […] This selectivity trend is consistent with that from MTS cell viability assays. Therefore, further cell-based studies were focused on compound 30.
Cell Transfection and Luciferase Assay. FuGENE6 (E269A, Promega) 96 well plate format was used for the transfection of SW480 cells according to the manufacturer's instruction. SW480 cells were co-transfected with 60 ng the TOPFlash or FOPFlash firefly luciferase reporter gene and 40 ng renilla luciferase pCMV-RL normalization reporter gene. Cells were cultured in DMEM and 10% FBS at 37° C. for 24 h, and different concentrations of inhibitors or DMSO was added. After 24 h, the luciferase reporter activity was measured using the Dual-Glo system (E2940, Promega). […]

Compound	Ki ([1]; AlphaScreen competitive inhibition assay, read-out: Ki for disruption of the β-catenin/BCL9 PPI)	AlphaScreen inhibitory activity in words [1]	IC50 ([1]; Table 1, AlphaScreen, inhibitors 16-26)	Ki ([1]; Table 1, AlphaScreen, inhibitors 16-26, Ki derived from IC50, read-out: Ki)	IC50 [2]	IC50 [3]	IC50 [4]	IC50 [5]	IC50 [6]	IC50 [7]	IC50 ([1]; Table 2, AlphaScreen, inhibitors 27-30 (R- and S-isomers), preliminary)	Ki ([1]; Table 2, AlphaScreen, inhibitors 27-30 (R- and S-isomers), preliminary, read-out: Ki)	selectivity for hyperactive cancer cells over normal MCF10A cells ([6]; MTS IC50 MCF10A versus cancer cells)	IC50 [8]
CC(C)(C)OC(=O)C(C)(C)Oc1cccc(N2CCCC(C(=O)N(Cc3ccc(-c4cccs4)cc3)C3CC3)C2)c1 (centres unmarked) [Compound 17, tert-Butyl 2-(3-(3-(cyclopropyl(4-(thiophen-2-yl)benzyl)carbamoyl)piperidin-1-yl)phenoxy)-2-methylpropanoate]	> 90 µM	significant potency loss	> 100 µM	> 90 µM	> 200 µM	> 200 µM	> 200 µM	> 200 µM	> 200 µM	> 200 µM	–	–	–	–
COc1cccc(S(=O)(=O)NC(=O)C(C)(C)Oc2cccc(N3CCC[C@H](C(=O)N(Cc4ccc(-c5cccs5)cc4)C4CC4)C3)c2)c1 [Compound 28, (S)—N-Cyclopropyl-1-(3-((1-((3-methoxyphenyl)sulfonamido)-2-methyl-1-oxopropan-2-yl)oxy)phenyl)-N-(4-(thiophen-2-yl)benzyl) piperidine-3-carboxamide]	–	slightly superior to R-isomer	–	–	28.2 ± 1.08 µM	29.9 ± 1.99 µM	19.8 ± 1.59 µM	15.4 ± 2.49 µM	30.4 ± 2.47 µM	–	≤ 5 µM	≤ 5 µM	much less selective over MCF10A cells	7.8 µM
